Test results: PMC5218480 (PLoS ONE, 2017)

Tested on: MV-4-11 cells
Assay: Gene expression microarray analysis (Affymetrix PrimeView) and GSEA
Format: cell-based, human
Parameters: RFU PODN (11730768_x_at) / Fold change /veh PODN (11730768_x_at) / RFU LINC00158 (11744669_a_at) / Fold change /veh LINC00158 (11744669_a_at) / RFU DUSP10 (11751237_a_at) / Fold change /veh DUSP10 (11751237_a_at) / RFU ID3 (11757404_x_at) / Fold change /veh ID3 (11757404_x_at) / RFU PLEKHG5 (11737974_s_at) / Fold change /veh PLEKHG5 (11737974_s_at) / RFU LRRC4B (11730491_at) / Fold change /veh LRRC4B (11730491_at) / RFU GIMAP4 (11747438_a_at) / Fold change /veh GIMAP4 (11747438_a_at) / RFU KRT8 (11758183_x_at) / Fold change /veh KRT8 (11758183_x_at) / RFU CNN1 (11734310_a_at) / Fold change /veh CNN1 (11734310_a_at) / RFU VPS37D (11726825_at) / Fold change /veh VPS37D (11726825_at) / RFU C10orf10 (11716522_x_at) / Fold change /veh C10orf10 (11716522_x_at) / RFU KIR2DL2 /// KIR2DL4 /// KIR2DL5A /// KIR2DL5B /// KIR2DS1 /// KIR2DS2 /// KIR2DS3 /// KIR2DS4 /// KIR3DL3 /// KIR3DL3 /// KIR3DS1 (11738374_at) / Fold change /veh KIR2DL2 /// KIR2DL4 /// KIR2DL5A /// KIR2DL5B /// KIR2DS1 /// KIR2DS2 /// KIR2DS3 /// KIR2DS4 /// KIR3DL3 /// KIR3DL3 /// KIR3DS1 (11738374_at) / RFU C1QL1 (11718748_at) / Fold change /veh C1QL1 (11718748_at) / RFU TMPRSS4 (11747572_a_at) / Fold change /veh TMPRSS4 (11747572_a_at) / RFU HAMP (11756126_x_at) / Fold change /veh HAMP (11756126_x_at) / RFU RNFT2 (11725882_a_at) / Fold change /veh RNFT2 (11725882_a_at) / RFU NR4A2 (11747474_a_at) / Fold change /veh NR4A2 (11747474_a_at) / RFU ABCC12 (11746883_a_at) / Fold change /veh ABCC12 (11746883_a_at) / RFU TMEM136 (11760407_x_at) / Fold change /veh TMEM136 (11760407_x_at) / RFU CLDN22 /// WWC2 (11732394_at) / Fold change /veh CLDN22 /// WWC2 (11732394_at) / RFU HLA-DPB1 (11760878_x_at) / Fold change /veh HLA-DPB1 (11760878_x_at) / RFU SPINT1 (11716480_a_at) / Fold change /veh SPINT1 (11716480_a_at) / RFU GAP43 (11754022_s_at) / Fold change /veh GAP43 (11754022_s_at) / RFU A4GNT (11735810_at) / Fold change /veh A4GNT (11735810_at) / RFU PRB3 (11715151_x_at) / Fold change /veh PRB3 (11715151_x_at) / RFU TUBB4B (11761932_at) / Fold change /veh TUBB4B (11761932_at) / RFU CAPN14 (11732068_a_at) / Fold change /veh CAPN14 (11732068_a_at) / RFU TMCC2 (11721928_a_at) / Fold change /veh TMCC2 (11721928_a_at) / RFU IRGQ (11745062_a_at) / Fold change /veh IRGQ (11745062_a_at) / RFU FAM174B (11720279_a_at) / Fold change /veh FAM174B (11720279_a_at) / RFU TMPRSS4 (11748680_a_at) / Fold change /veh TMPRSS4 (11748680_a_at) / RFU FAM212B (11763350_a_at) / Fold change /veh FAM212B (11763350_a_at) / RFU PLEKHG5 (11743358_a_at) / Fold change /veh PLEKHG5 (11743358_a_at) / RFU ZSCAN30 (11745921_a_at) / Fold change /veh ZSCAN30 (11745921_a_at) / RFU CMKLR1 (11741424_a_at) / Fold change /veh CMKLR1 (11741424_a_at) / RFU LOC101060620 /// MAPK8IP1 (11723275_at) / Fold change /veh LOC101060620 /// MAPK8IP1 (11723275_at) / RFU SPTSSB (11747773_x_at) / Fold change /veh SPTSSB (11747773_x_at) / RFU PRSS12 (11739890_at) / Fold change /veh PRSS12 (11739890_at) / RFU BIN1 (11741810_x_at) / Fold change /veh BIN1 (11741810_x_at) / RFU WNT11 (11732464_a_at) / Fold change /veh WNT11 (11732464_a_at) / RFU C10orf10 (11716521_a_at) / Fold change /veh C10orf10 (11716521_a_at) / RFU C5orf56 (11738089_at) / Fold change /veh C5orf56 (11738089_at) / RFU CYB561 (11721691_x_at) / Fold change /veh CYB561 (11721691_x_at) / RFU ANKRD19P (11752326_a_at) / Fold change /veh ANKRD19P (11752326_a_at) / RFU OR2T12 /// OR2T33 /// OR2T8 (11738714_s_at) / Fold change /veh OR2T12 /// OR2T33 /// OR2T8 (11738714_s_at) / RFU VCAN (11748164_a_at) / Fold change /veh VCAN (11748164_a_at) / RFU JSRP1 (11732532_at) / Fold change /veh JSRP1 (11732532_at) / RFU KRTAP10-11 (11738290_x_at) / Fold change /veh KRTAP10-11 (11738290_x_at) / RFU MYO3A (11730013_a_at) / Fold change /veh MYO3A (11730013_a_at) / RFU EBF3 (11725865_a_at) / Fold change /veh EBF3 (11725865_a_at) / RFU CAMK2N1 (11719241_x_at) / Fold change /veh CAMK2N1 (11719241_x_at) / RFU C5orf56 (11738088_a_at) / Fold change /veh C5orf56 (11738088_a_at) / RFU OLFML3 (11715873_a_at) / Fold change /veh OLFML3 (11715873_a_at) / RFU LOC100653217 /// NTM (11731650_a_at) / Fold change /veh LOC100653217 /// NTM (11731650_a_at) / RFU MAPK11 (11762145_a_at) / Fold change /veh MAPK11 (11762145_a_at) / RFU FIZ1 (11724087_x_at) / Fold change /veh FIZ1 (11724087_x_at) / RFU OASL (11726364_x_at) / Fold change /veh OASL (11726364_x_at) / RFU SOX15 (11748057_x_at) / Fold change /veh SOX15 (11748057_x_at) / RFU CD79A (11719716_a_at) / Fold change /veh CD79A (11719716_a_at) / RFU HIST1H1D (11736915_at) / Fold change /veh HIST1H1D (11736915_at) / RFU CASKIN2 (11723855_a_at) / Fold change /veh CASKIN2 (11723855_a_at) / RFU LOC730098 (11760151_x_at) / Fold change /veh LOC730098 (11760151_x_at) / RFU OR4N2 (11742367_at) / Fold change /veh OR4N2 (11742367_at) / RFU PRRT2 (11749266_a_at) / Fold change /veh PRRT2 (11749266_a_at) / RFU SNX32 (11753110_a_at) / Fold change /veh SNX32 (11753110_a_at) / RFU CDHR5 (11726645_a_at) / Fold change /veh CDHR5 (11726645_a_at) / RFU RCAN1 (11760418_a_at) / Fold change /veh RCAN1 (11760418_a_at) / RFU FAM167A (11723789_a_at) / Fold change /veh FAM167A (11723789_a_at) / RFU FAM26E (11764081_at) / Fold change /veh FAM26E (11764081_at) / RFU ISYNA1 (11749810_s_at) / Fold change /veh ISYNA1 (11749810_s_at) / RFU ACY1 (11761880_at) / Fold change /veh ACY1 (11761880_at) / RFU 11764098_at / Fold change /veh 11764098_at / RFU SAMD14 (11745864_x_at) / Fold change /veh SAMD14 (11745864_x_at) / RFU NPB (11741838_a_at) / Fold change /veh NPB (11741838_a_at) / RFU TMPRSS6 (11731388_a_at) / Fold change /veh TMPRSS6 (11731388_a_at) / RFU KRTAP10-2 (11738614_at) / Fold change /veh KRTAP10-2 (11738614_at) / RFU ARHGAP8 /// PRR5-ARHGAP8 (11727945_x_at) / Fold change /veh ARHGAP8 /// PRR5-ARHGAP8 (11727945_x_at) / RFU KRTAP5-7 /// NADSYN1 (11734609_at) / Fold change /veh KRTAP5-7 /// NADSYN1 (11734609_at) / RFU RASL12 (11751679_a_at) / Fold change /veh RASL12 (11751679_a_at) / RFU CDKN2B (11736163_a_at) / Fold change /veh CDKN2B (11736163_a_at) / RFU PRF1 (11729649_at) / Fold change /veh PRF1 (11729649_at) / RFU, ZNF638 /// ZNF638-IT1 / Fold change vs veh, ZNF638 /// ZNF638-IT1 / RFU, PANK3 / Fold change vs veh, PANK3 / RFU, SH3YL1 / Fold change vs veh, SH3YL1 / RFU, ZEB2 / Fold change vs veh, ZEB2 / RFU, NRIP1 / Fold change vs veh, NRIP1 / RFU, PTTG1IP / Fold change vs veh, PTTG1IP / RFU, CAPN2 / Fold change vs veh, CAPN2 / RFU, MED14 / Fold change vs veh, MED14 / RFU, SNORA58 / Fold change vs veh, SNORA58 / RFU, C1orf63 / Fold change vs veh, C1orf63 / RFU, LRRFIP1 / Fold change vs veh, LRRFIP1 / RFU, NDUFAF7 / Fold change vs veh, NDUFAF7 / RFU, SLC12A2 / Fold change vs veh, SLC12A2 / RFU, IBTK / Fold change vs veh, IBTK / RFU, ESF1 / Fold change vs veh, ESF1 / Fold change vs veh, TMEM50B / RFU, TAOK1 / Fold change vs veh, TAOK1 / RFU, ACBD3 / Fold change vs veh, ACBD3 / RFU, TMA16 / Fold change vs veh, TMA16 / RFU, RWDD3 / Fold change vs veh, RWDD3 / RFU, BCAT1 / Fold change vs veh, BCAT1 / RFU, EDEM3 / Fold change vs veh, EDEM3 / RFU, TMEM33 / Fold change vs veh, TMEM33 / RFU, WDR75 / Fold change vs veh, WDR75 / RFU, AHCTF1 / Fold change vs veh, AHCTF1 / RFU, TFRC / Fold change vs veh, TFRC / RFU, ZDHHC17 / Fold change vs veh, ZDHHC17 / RFU, NOM1 / Fold change vs veh, NOM1 / RFU, ARL8B / Fold change vs veh, ARL8B / RFU, ZBTB11 / Fold change vs veh, ZBTB11 / RFU, TAMM41 / Fold change vs veh, TAMM41 / RFU, KIAA1704 /// LOC100996395 / Fold change vs veh, KIAA1704 /// LOC100996395 / RFU, ING1 / Fold change vs veh, ING1 / RFU, TRMT61B / Fold change vs veh, TRMT61B / RFU, FUBP3 / Fold change vs veh, FUBP3 / RFU, TP53 / Fold change vs veh, TP53 / RFU, TNKS2 / Fold change vs veh, TNKS2 / RFU, ZFP14 / Fold change vs veh, ZFP14 / RFU, ACTR2 / Fold change vs veh, ACTR2 / RFU, PPP3R1 / Fold change vs veh, PPP3R1 / RFU, PIK3R1 / Fold change vs veh, PIK3R1 / RFU, HNRNPA1 / Fold change vs veh, HNRNPA1 / RFU, RNF170 / Fold change vs veh, RNF170 / RFU, ZNF28 / Fold change vs veh, ZNF28 / RFU, RNGTT / Fold change vs veh, RNGTT / RFU, OGT / Fold change vs veh, OGT / RFU, BRD1 / Fold change vs veh, BRD1 / RFU, MARS / Fold change vs veh, MARS / RFU, ZNF655 / Fold change vs veh, ZNF655 / RFU, FAHD1 / Fold change vs veh, FAHD1 / RFU, BDP1 / Fold change vs veh, BDP1 / RFU, LRRCC1 / Fold change vs veh, LRRCC1 / RFU, ARID1A / Fold change vs veh, ARID1A / RFU, ZNF146 / Fold change vs veh, ZNF146 / RFU, ZNF330 / Fold change vs veh, ZNF330 / RFU, GPN3 / Fold change vs veh, GPN3 / RFU, C9orf123 / Fold change vs veh, C9orf123 / RFU, N4BP2L2 / Fold change vs veh, N4BP2L2 / RFU, ARFIP1 / Fold change vs veh, ARFIP1 / RFU, FAM179B / Fold change vs veh, FAM179B / RFU, BCL10 / Fold change vs veh, BCL10 / RFU, UHRF1BP1L / Fold change vs veh, UHRF1BP1L / RFU, BET1 / Fold change vs veh, BET1 / RFU, CNOT2 / Fold change vs veh, CNOT2 / RFU, ZNF268 / Fold change vs veh, ZNF268 / Fold change vs veh, ZNF507 / RFU, DGCR2 / Fold change vs veh, DGCR2 / RFU, WDSUB1 / Fold change vs veh, WDSUB1 / Fold change vs veh, HSP90B1 /// MIR3652 / RFU, ADSS / Fold change vs veh, ADSS / RFU, GK / Fold change vs veh, GK / RFU, ZNF148 / Fold change vs veh, ZNF148 / RFU, TAF9 / Fold change vs veh, TAF9 / RFU, SLC1A5 / Fold change vs veh, SLC1A5 / RFU, SLMO2 / Fold change vs veh, SLMO2 / RFU, ABCC4 / Fold change vs veh, ABCC4 / RFU, LOC101060439 /// RAP1B / Fold change vs veh, LOC101060439 /// RAP1B / RFU, RFX7 / Fold change vs veh, RFX7 / RFU, GTPBP10 / Fold change vs veh, GTPBP10 / RFU, CNEP1R1 / Fold change vs veh, CNEP1R1 / RFU, BIVM-ERCC5 /// ERCC5 / Fold change vs veh, BIVM-ERCC5 /// ERCC5 / RFU, ILF3 / Fold change vs veh, ILF3 / RFU 11762660_at / Fold change /veh 11762660_at / RFU VCAN (11757783_s_at) / Fold change /veh VCAN (11757783_s_at) / RFU DDX43 (11728927_at) / Fold change /veh DDX43 (11728927_at) / RFU KRT8 (11758188_x_at) / Fold change /veh KRT8 (11758188_x_at) / RFU NKD1 (11759106_at) / Fold change /veh NKD1 (11759106_at) / RFU SRD5A1 (11742802_a_at) / Fold change /veh SRD5A1 (11742802_a_at) / RFU TPSAB1 /// TPSB2 (11721975_s_at) / Fold change /veh TPSAB1 /// TPSB2 (11721975_s_at) / RFU GSTM3 (11746129_a_at) / Fold change /veh GSTM3 (11746129_a_at) / RFU IL23R (11737362_x_at) / Fold change /veh IL23R (11737362_x_at) / RFU TMEM51 (11727254_a_at) / Fold change /veh TMEM51 (11727254_a_at) / RFU PIWIL2 (11732686_x_at) / Fold change /veh PIWIL2 (11732686_x_at) / RFU ORM1 (11744905_x_at) / Fold change /veh ORM1 (11744905_x_at) / RFU CCDC152 (11743942_at) / Fold change /veh CCDC152 (11743942_at) / RFU ECM1 (11717891_a_at) / Fold change /veh ECM1 (11717891_a_at) / RFU IL23R (11748794_a_at) / Fold change /veh IL23R (11748794_a_at) / RFU TNFAIP8L3 (11732012_x_at) / Fold change /veh TNFAIP8L3 (11732012_x_at) / RFU MBOAT4 (11741988_at) / Fold change /veh MBOAT4 (11741988_at) / RFU 11764193_at / Fold change /veh 11764193_at / RFU TMEM53 (11763286_at) / Fold change /veh TMEM53 (11763286_at) / RFU MAGEB2 (11727129_at) / Fold change /veh MAGEB2 (11727129_at) / RFU TMEM200A (11744735_a_at) / Fold change /veh TMEM200A (11744735_a_at) / RFU CCDC152 (11751479_a_at) / Fold change /veh CCDC152 (11751479_a_at) / RFU FAM211A (11726209_a_at) / Fold change /veh FAM211A (11726209_a_at) / RFU RGS16 (11746705_a_at) / Fold change /veh RGS16 (11746705_a_at) / RFU VCAN (11755009_s_at) / Fold change /veh VCAN (11755009_s_at) / RFU RHOB (11743442_s_at) / Fold change /veh RHOB (11743442_s_at) / RFU RGS16 (11720943_a_at) / Fold change /veh RGS16 (11720943_a_at) / RFU RGS16 (11720944_at) / Fold change /veh RGS16 (11720944_at) / RFU, VPS4B / Fold change vs veh, VPS4B / RFU, CREB1 / Fold change vs veh, CREB1 / RFU, DNAJC13 / Fold change vs veh, DNAJC13 / RFU, GNAQ / Fold change vs veh, GNAQ / RFU, CDK5R1 / Fold change vs veh, CDK5R1 / RFU, ZRANB3 / Fold change vs veh, ZRANB3 / RFU, CUL4A / Fold change vs veh, CUL4A / RFU, CCNY / Fold change vs veh, CCNY / RFU, UFL1 / Fold change vs veh, UFL1 / RFU, COG3 / Fold change vs veh, COG3 / RFU, DIAPH2 / Fold change vs veh, DIAPH2 / RFU, SKA2 / Fold change vs veh, SKA2 / RFU, AFF3 / Fold change vs veh, AFF3 / RFU, LMF1 / Fold change vs veh, LMF1 / RFU, IPO11 / Fold change vs veh, IPO11 / RFU, DFFB / Fold change vs veh, DFFB / RFU, FOXP1 / Fold change vs veh, FOXP1 / RFU, CARD8 / Fold change vs veh, CARD8 / RFU, STRN3 / Fold change vs veh, STRN3 / RFU, ADK / Fold change vs veh, ADK / RFU, RASSF2 / Fold change vs veh, RASSF2 / RFU, WIPF1 / Fold change vs veh, WIPF1 / RFU, LARP1B / Fold change vs veh, LARP1B / RFU, RASA1 / Fold change vs veh, RASA1 / RFU, RB1 / Fold change vs veh, RB1 / RFU, PPFIA1 / Fold change vs veh, PPFIA1 / RFU, MAT2A / Fold change vs veh, MAT2A / RFU, CCT5 / Fold change vs veh, CCT5 / RFU, WDR92 / Fold change vs veh, WDR92 / RFU, CUX1 / Fold change vs veh, CUX1 / RFU, TTC7A / Fold change vs veh, TTC7A / RFU, TMEM135 / Fold change vs veh, TMEM135 / RFU, DEPTOR / Fold change vs veh, DEPTOR / RFU, CPM / Fold change vs veh, CPM / RFU, DNAJB6 / Fold change vs veh, DNAJB6 / RFU, CACNA2D3 / Fold change vs veh, CACNA2D3 / RFU, DTX4 / Fold change vs veh, DTX4 / RFU, TFCP2 / Fold change vs veh, TFCP2 / RFU, GMCL1 /// GMCL1P1 / Fold change vs veh, GMCL1 /// GMCL1P1 / RFU, AEBP2 / Fold change vs veh, AEBP2 / RFU, SNHG1 /// SNORD22 /// SNORD25 /// SNORD26 /// SNORD27 /// SNORD28 /// SNORD29 /// SNORD31 / Fold change vs veh, SNHG1 /// SNORD22 /// SNORD25 /// SNORD26 /// SNORD27 /// SNORD28 /// SNORD29 /// SNORD31 / Fold change (Aza/veh), C12orf56 (ProbeSet 11735607_a_at) / Fold change (ACY-1035/veh), C12orf56 (ProbeSet 11735607_a_at) / Fold change (Aza/veh), FGFR1OP (ProbeSet 11751329_s_at) / Fold change (ACY-1035/veh), FGFR1OP (ProbeSet 11751329_s_at) / Fold change (Aza/veh), VPS36 (ProbeSet 11739960_a_at) / Fold change (ACY-1035/veh), VPS36 (ProbeSet 11739960_a_at) / RFU SYPL1 (11715823_x_at) / Fold change /veh SYPL1 (11715823_x_at) / RFU IGFBP7 (11715501_s_at) / Fold change /veh IGFBP7 (11715501_s_at) / RFU REEP3 (11722064_at) / Fold change /veh REEP3 (11722064_at) / RFU IGLL1 (11728026_x_at) / Fold change /veh IGLL1 (11728026_x_at): dose or concentration left out as unconfirmed
Details: ProbeSet 11743286_at; LIST D

Nc1ncn([C@@H]2O[C@H](CO)[C@@H](O)[C@H]2O)c(=O)n1 [azacitidine]
Fold change vs veh, DTX4: 0.59
